Assays:
ALOMY [1] = experiment: Pre-emergence action against ALOMY; type: in vivo, Alopecurus myosuroides; settings: dosage 320 g/ha; pre-emergence; scored visually after 3 weeks vs untreated controls; 100% = plants have died, 0% = like control plants
Outline: (§1)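 Seeds sown in sandy loam in wood-fiber pots and covered with soil. Greenhouse growth; visual damage scored after 3 weeks versus untreated controls (100% = dead, 0% = like control).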

AVEFA = experiment: Pre-emergence action against AVEFA; type: in vivo, Avena fatua; settings: dosage 320 g/ha, scored visually after 3 weeks vs untreated controls
Outline: as §1

DIGSA [2] = experiment: Pre-emergence action against DIGSA; type: in vivo, Digitaria sanguinalis; settings: dosage 320 g/ha, scored visually after 3 weeks vs untreated controls
Outline: as §1

ECHCG [3] = experiment: Pre-emergence action against ECHCG; type: in vivo, Echinochloa crus-galli; settings: pre-emergence, dosage 320 g/ha, scored visually after 3 weeks vs untreated controls
Outline: as §1

LOLRI = experiment: Pre-emergence action against LOLRI; type: in vivo, Lolium rigidum; settings: dosage 320 g/ha, scored visually after 3 weeks vs untreated controls
Outline: as §1

SETVI [4] = experiment: Pre-emergence action against SETVI; type: in vivo, Setaria viridis; settings: pre-emergence, dosage 320 g/ha, scored visually after 3 weeks vs untreated controls
Outline: as §1

ABUTH [5] = experiment: Pre-emergence action against ABUTH; type: in vivo, Abutilon theophrasti; settings: pre-emergence, dosage 320 g/ha, scored visually after 3 weeks vs untreated controls
Outline: as §1

AMARE [6] = experiment: Pre-emergence action against AMARE; type: in vivo, Amaranthus retroflexus; settings: pre-emergence, dosage 320 g/ha, scored visually after 3 weeks vs untreated controls
Outline: as §1

MATIN [7] = experiment: Pre-emergence action against MATIN; type: in vivo, Matricaria inodora; settings: Dosage 320 g/ha, pre-emergence
Outline: as §1

PHBPU [8] = experiment: Pre-emergence action against PHBPU; type: in vivo, Pharbitis purpurea; settings: Dosage 320 g/ha, pre-emergence
Outline: as §1

STEME [9] = experiment: Pre-emergence action against STEME; type: in vivo, Stellaria media; settings: Dosage 320 g/ha, pre-emergence
Outline: as §1

VIOTR [10] = experiment: Pre-emergence action against VIOTR; type: in vivo, Viola tricolor; settings: Dosage 320 g/ha, pre-emergence
Outline: as §1

VERPE [11] = experiment: Pre-emergence action against VERPE; type: in vivo, Veronica persica; settings: Dosage 320 g/ha, pre-emergence
Outline: as §1

ALOMY [12] = experiment: Post-emergence action against ALOMY; type: in vivo, Alopecurus myosuroides; settings: Dosage 80 g/ha, post-emergence
Outline: (§2)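 Weeds grown in sandy loam in greenhouse, treated at one-leaf stage (2–3 weeks after sowing) with WP or EC formulations sprayed as aqueous suspension/emulsion at 600 to […] water with 0.2% wetting agent. Visual rating after about 3 weeks versus untreated controls, as % herbicidal action (100% = plants dead, 0% = like control).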

DIGSA [13] = experiment: Post-emergence action against DIGSA; type: in vivo, Digitaria sanguinalis; settings: dosage 80 g/ha, visual assessment about 3 weeks after treatment vs untreated controls
Protocol: Seeds of monocotyledonous and dicotyledonous weed and crop plants are laid out in sandy loam soil in wood-fiber pots, covered with soil and cultivated in a greenhouse under good growth conditions. 2 to 3 weeks after sowing, the test plants are treated at the one-leaf stage. The compounds of the invention, formulated in the form of wettable powders (WP) or as emulsion concentrates (EC), are then sprayed onto the green parts of the plants in the form of an aqueous suspension or emulsion at a water application rate equating to […], with addition of 0.2% wetting agent. After the test plants have been left to stand in the greenhouse under optimal growth conditions for about 3 weeks, the action of the preparations is assessed visually in comparison to untreated controls (herbicidal action in percent (%): 100% activity=the plants have died, 0% activity=like control plants). […] At the same time, inventive compounds leave Gramineae crops such as barley, wheat, rye, millet/Sorghum, corn or rice virtually undamaged when applied post-emergence, even at high active ingredient dosages. In addition, some substances are also harmless to dicotyledonous crops such as soya, cotton, oilseed rape, sugar beet or potatoes. Some of the compounds according to the invention have high selectivity and are therefore suitable for controlling unwanted vegetation in agricultural crops by the post-emergence method. The data of Tables B18 to B34 below illustrate, in an exemplary manner, the […] herbicidal action of the compounds according to the invention, the herbicidal activity being stated in percent.

ECHCG [14] = experiment: Post-emergence action against ECHCG; type: in vivo, Echinochloa crus-galli; settings: post-emergence, dosage 80 g/ha, visual assessment about 3 weeks after treatment vs untreated controls
Outline: as §2

SETVI [15] = experiment: Post-emergence action against SETVI; type: in vivo, Setaria viridis; settings: post-emergence, dosage 80 g/ha, visual assessment about 3 weeks after treatment vs untreated controls
Outline: as §2

ABUTH [16] = experiment: Post-emergence action against ABUTH; type: in vivo, Abutilon theophrasti; settings: post-emergence, dosage 80 g/ha, visual assessment about 3 weeks after treatment vs untreated controls
Outline: as §2

AMARE [17] = experiment: Post-emergence action against AMARE; type: in vivo, Amaranthus retroflexus; settings: post-emergence, dosage 80 g/ha, visual assessment about 3 weeks after treatment vs untreated controls
Outline: as §2

MATIN [18] = experiment: Post-emergence action against MATIN; type: in vivo, Matricaria inodora; settings: post-emergence, dosage 80 g/ha, visual assessment about 3 weeks after treatment vs untreated controls
Outline: as §2

PHBPU [19] = experiment: Post-emergence action against PHBPU; type: in vivo, Pharbitis purpurea; settings: post-emergence, dosage 80 g/ha
Outline: as §2

POLCO [20] = experiment: Post-emergence action against POLCO; type: in vivo, Polygonum convolvulus; settings: post-emergence, dosage 80 g/ha
Outline: as §2

STEME [21] = experiment: Post-emergence action against STEME; type: in vivo, Stellaria media; settings: post-emergence, dosage 80 g/ha
Outline: as §2

VIOTR [22] = experiment: Post-emergence action against VIOTR; type: in vivo, Viola tricolor; settings: post-emergence, dosage 80 g/ha
Outline: as §2

VERPE [23] = experiment: Post-emergence action against VERPE; type: in vivo, Veronica persica; settings: dosage 80 g/ha
Outline: as §2

POLCO [24] = experiment: Pre-emergence action against POLCO; type: in vivo, Polygonum convolvulus; settings: Dosage 320 g/ha, pre-emergence
Outline: as §1

Cn1nnnc1NC(=O)c1ccc(C(F)(F)F)c(C(=O)C2CCC2)c1Cl [1-153]
Pre-emergence action against ALOMY (herbicidal activity in percent) (ALOMY [1]): 90% | Pre-emergence action against AVEFA (herbicidal activity) (AVEFA): 80% | Pre-emergence action against DIGSA (herbicidal activity) (DIGSA [2]): 100% | Pre-emergence action against ECHCG (herbicidal activity) (ECHCG [3]): 90% | Pre-emergence action against LOLRI (herbicidal activity) (LOLRI): 90% | SETVI (Table B8, pre-emergence herbicidal activity) (SETVI [4]): 100% | Pre-emergence action against ABUTH (herbicidal activity) (ABUTH [5]): 100% | Pre-emergence action against AMARE (herbicidal activity) (AMARE [6]): 100% | Pre-emergence action against MATIN (MATIN [7]): 100% | Pre-emergence action against PHBPU (PHBPU [8]): 80% | Pre-emergence action against STEME (STEME [9]): 100% | Pre-emergence action against VIOTR (VIOTR [10]): 100% | Pre-emergence action against VERPE (VERPE [11]): 100% | Post-emergence action against ALOMY (ALOMY [12]): 80% | Post-emergence action against DIGSA (herbicidal action in percent) (DIGSA [13]): 90% | Post-emergence action against ECHCG (herbicidal action in percent) (ECHCG [14]): 90% | Post-emergence action against SETVI (herbicidal action in percent) (SETVI [15]): 100% | Post-emergence action against ABUTH (herbicidal action in percent) (ABUTH [16]): 100% | Post-emergence action against AMARE (herbicidal action in percent) (AMARE [17]): 100% | Post-emergence action against MATIN (herbicidal action in percent) (MATIN [18]): 100% | Post-emergence action against PHBPU (PHBPU [19]): 90 | Post-emergence action against POLCO (POLCO [20]): 80 | Post-emergence action against STEME (STEME [21]): 100 | Post-emergence action against VIOTR (VIOTR [22]): 80 | Post-emergence action against VERPE (VERPE [23]): 80

CCn1nnnc1NC(=O)c1ccc(C(F)(F)F)c(C(=O)CCl)c1C [2-22]
Pre-emergence action against ALOMY (herbicidal activity in percent) (ALOMY [1]): 90% | Pre-emergence action against AVEFA (herbicidal activity) (AVEFA): 100% | Pre-emergence action against DIGSA (herbicidal activity) (DIGSA [2]): 100% | Pre-emergence action against ECHCG (herbicidal activity) (ECHCG [3]): 90% | Pre-emergence action against LOLRI (herbicidal activity) (LOLRI): 90% | SETVI (Table B8, pre-emergence herbicidal activity) (SETVI [4]): 100% | Pre-emergence action against ABUTH (herbicidal activity) (ABUTH [5]): 100% | Pre-emergence action against AMARE (herbicidal activity) (AMARE [6]): 100% | Pre-emergence action against MATIN (MATIN [7]): 100% | Pre-emergence action against PHBPU (PHBPU [8]): 80% | Pre-emergence action against POLCO (POLCO [24]): 80% | Pre-emergence action against STEME (STEME [9]): 100% | Pre-emergence action against VIOTR (VIOTR [10]): 100% | Pre-emergence action against VERPE (VERPE [11]): 100% | Post-emergence action against ALOMY (ALOMY [12]): 80% | Post-emergence action against DIGSA (herbicidal action in percent) (DIGSA [13]): 90% | Post-emergence action against ECHCG (herbicidal action in percent) (ECHCG [14]): 90% | Post-emergence action against SETVI (herbicidal action in percent) (SETVI [15]): 80% | Post-emergence action against ABUTH (herbicidal action in percent) (ABUTH [16]): 90% | Post-emergence action against AMARE (herbicidal action in percent) (AMARE [17]): 80% | Post-emergence action against MATIN (herbicidal action in percent) (MATIN [18]): 90% | Post-emergence action against PHBPU (PHBPU [19]): 100 | Post-emergence action against STEME (STEME [21]): 90 | Post-emergence action against VIOTR (VIOTR [22]): 100 | Post-emergence action against VERPE (VERPE [23]): 80

— US11051515B2, “3-acyl-benzamides and their use as herbicides” (Bayer Aktiengesellschaft, priority 2017, dated 2021)
